Data from PubChem BioAssay AID330 (DTP/NCI, 2004).
“And” between values parts separate entries of the source, which are not always exact repeats. Identical values can stand only once. Toxic doses and inconclusive results are not listed. Peptide text beside a SMILES is read from it.

System: P388 leukemia ip, CD2F1 mice, survival T/C
Assay: NCI In Vivo Anticancer Drug Screen. Data for tumor model P388 Leukemia (intraperitoneal) in CD2F1 (CDF1) mice
Details: endpoint: median survival time, higher = longer survival
Outline: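 Mice carrying the transplanted tumor received test compound or vehicle. Survival was recorded in each group, and the value is the treated-group measurement divided by that of the vehicle-treated control group.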

[1] = dose: 100.0 mg/kg/injection, schedule: Q04DX002 (ip), vehicle: saline with Tween-80
[2] = dose: 200.0 mg/kg/injection, schedule: Q04DX002 (ip), vehicle: saline with Tween-80
[3] = dose: 400.0 mg/kg/injection, schedule: Q04DX002 (ip), vehicle: saline with Tween-80
[4] = dose: 50.0 mg/kg/injection, schedule: Q01DX005 (ip), vehicle: Klucel (hydroxypropylcellulose) (HPC)
[5] = dose: 100.0 mg/kg/injection, schedule: Q01DX005 (ip), vehicle: Klucel (hydroxypropylcellulose) (HPC)
[6] = dose: 200.0 mg/kg/injection, schedule: Q01DX005 (ip), vehicle: Klucel (hydroxypropylcellulose) (HPC)
[7] = dose: 100.0 mg/kg/injection, schedule: Q01DX001 (ip), vehicle: saline with Tween-80
[8] = dose: 200.0 mg/kg/injection, schedule: Q01DX001 (ip), vehicle: saline with Tween-80
[9] = dose: 60.0 mg/kg/injection, schedule: Q01DX005 (ip), vehicle: Klucel (hydroxypropylcellulose) (HPC)
[10] = dose: 120.0 mg/kg/injection, schedule: Q01DX005 (ip), vehicle: Klucel (hydroxypropylcellulose) (HPC)

O=C1c2ccccc2CC1CS(=O)(=O)CC1Cc2ccccc2C1=O (centres undefined)
T/C (dose: 100.0 mg/kg/injection, schedule: Q04DX002 (ip), vehicle: saline): 100 % of control
T/C (dose: 200.0 mg/kg/injection, schedule: Q04DX002 (ip), vehicle: saline): 100 % of control
T/C (dose: 400.0 mg/kg/injection, schedule: Q04DX002 (ip), vehicle: saline): 91 % of control and 96 % of control

S=C(S)C1=C(NCCCCCCNC2=C(C(=S)S)CCC2)CCC1
T/C (dose: 100.0 mg/kg/injection, schedule: Q01DX001 (ip), vehicle: Klucel (hydroxypropylcellulose) (HPC)): 100 % of control
T/C (dose: 200.0 mg/kg/injection, schedule: Q01DX001 (ip), vehicle: Klucel (hydroxypropylcellulose) (HPC)): 94 % of control
T/C (dose: 400.0 mg/kg/injection, schedule: Q01DX001 (ip), vehicle: Klucel (hydroxypropylcellulose) (HPC)): 100 % of control

COc1ccccc1N=C(C1=C(O)c2ccccc2C1=O)c1ccccc1
T/C [1]: 100 % of control
T/C [2]: 102 % of control
T/C [3]: 94 % of control

CSC(=S)/C=C(\O)c1ccccc1
T/C (dose: 100.0 mg/kg/injection, schedule: Q04DX003 (ip), vehicle: saline): 95 % of control
T/C (dose: 200.0 mg/kg/injection, schedule: Q04DX003 (ip), vehicle: saline): 104 % of control

CC([NH-])C[NH-].[Br][Pt+2][Br] (centres undefined)
T/C (dose: 12.5 mg/kg/injection, schedule: Q04DX002 (ip), vehicle: saline with Tween-80): 158 % of control
T/C (dose: 25.0 mg/kg/injection, schedule: Q04DX002 (ip), vehicle: saline with Tween-80): 174 % of control

Cc1nnc2c(c(=O)n(C)c(=O)n2C)[n+]1[O-]
T/C (dose: 12.5 mg/kg/injection, schedule: Q01DX001 (ip), vehicle: saline): 105 % of control
T/C (dose: 25.0 mg/kg/injection, schedule: Q01DX001 (ip), vehicle: saline): 109 % of control
T/C (dose: 50.0 mg/kg/injection, schedule: Q01DX001 (ip), vehicle: saline): 106 % of control

C[C@@H]1CC[C@@]2(OC1)O[C@H]1C[C@H]3[C@@H]4CC(=O)C5=CC(=O)CC[C@]5(C)[C@H]4CC[C@]3(C)[C@H]1[C@@H]2C
T/C (dose: 2.25 mg/kg/injection, schedule: Q01DX005 (ip), vehicle: Klucel (hydroxypropylcellulose) (HPC)): 101 % of control
T/C (dose: 4.5 mg/kg/injection, schedule: Q01DX005 (ip), vehicle: Klucel (hydroxypropylcellulose) (HPC)): 100 % of control
T/C (dose: 9.0 mg/kg/injection, schedule: Q01DX005 (ip), vehicle: Klucel (hydroxypropylcellulose) (HPC)): 97 % of control
T/C (dose: 18.0 mg/kg/injection, schedule: Q01DX005 (ip), vehicle: Klucel (hydroxypropylcellulose) (HPC)): 89 % of control
T/C (dose: 36.0 mg/kg/injection, schedule: Q01DX005 (ip), vehicle: Klucel (hydroxypropylcellulose) (HPC)): 88 % of control

Cc1ccc(N=C(CC(C)C)C2C(=O)c3ccccc3C2=O)cc1
T/C [4]: 100 % of control
T/C [5]: 94 % of control
T/C [6]: 99 % of control

Cn1c(=O)c2nc(-c3ccc(Cl)cc3)c(-c3ccc(Cl)cc3)nc2n(C)c1=O
T/C (dose: 50.0 mg/kg/injection, schedule: Q01DX001 (ip), vehicle: saline with Tween-80): 102 % of control
T/C [7]: 102 % of control
T/C [8]: 110 % of control

Cc1cc(CN2CCN(CCO)CC2)c(O)c(CN2CCN(CCO)CC2)c1
T/C (dose: 60.0 mg/kg/injection, schedule: Q01DX005 (ip), vehicle: saline): 105 % of control
T/C (dose: 120.0 mg/kg/injection, schedule: Q01DX005 (ip), vehicle: saline): 102 % of control

Cc1ccc(S(=O)(=O)OC2C(OCc3ccccc3)C(OCc3ccccc3)C3CON(C)C32)cc1 (centres undefined)
T/C [4]: 86 % of control
T/C [5]: 89 % of control
T/C [6]: 92 % of control

Cc1ncc([N+](=O)[O-])n1CCO
T/C (dose: 16.0 mg/kg/injection, schedule: Q01DX009 (ip), vehicle: saline with Tween-80): 112 % of control
T/C (dose: 32.0 mg/kg/injection, schedule: Q01DX009 (ip), vehicle: saline with Tween-80): 108 % of control
T/C (dose: 50.0 mg/kg/injection, schedule: Q01DX009 (ip), vehicle: saline with Tween-80): 98 % of control
T/C (dose: 64.0 mg/kg/injection, schedule: Q01DX009 (ip), vehicle: saline with Tween-80): 102 % of control and 108 % of control
T/C (dose: 100.0 mg/kg/injection, schedule: Q01DX009 (ip), vehicle: saline with Tween-80): 118 % of control
T/C (dose: 128.0 mg/kg/injection, schedule: Q01DX009 (ip), vehicle: saline with Tween-80): 100 % of control and 109 % of control
T/C (dose: 200.0 mg/kg/injection, schedule: Q01DX009 (ip), vehicle: saline with Tween-80): 107 % of control
T/C (dose: 250.0 mg/kg/injection, schedule: Q01DX001 (ip), vehicle: saline with Tween-80): 103 % of control
T/C (dose: 256.0 mg/kg/injection, schedule: Q01DX009 (ip), vehicle: saline with Tween-80): 108 % of control
T/C (dose: 360.0 mg/kg/injection, schedule: Q01DX001 (ip), vehicle: saline with Tween-80): 100 % of control and 103 % of control
T/C (dose: 400.0 mg/kg/injection, schedule: Q01DX009 (ip), vehicle: saline with Tween-80): 111 % of control
T/C (dose: 500.0 mg/kg/injection, schedule: Q01DX001 (ip), vehicle: saline with Tween-80): 103 % of control
T/C (dose: 512.0 mg/kg/injection, schedule: Q01DX009 (ip), vehicle: saline with Tween-80): 100 % of control
T/C (dose: 600.0 mg/kg/injection, schedule: Q01DX001 (ip), vehicle: saline with Tween-80): 100 % of control and 97 % of control
T/C (dose: 1000.0 mg/kg/injection, schedule: Q01DX001 (ip), vehicle: saline with Tween-80): 102 % of control and 104 % of control and 101 % of control
T/C (dose: 2000.0 mg/kg/injection, schedule: Q01DX001 (ip), vehicle: saline with Tween-80): 99 % of control

CC(C)CC(N)C(=O)NC(CCCN=C(N)N)C(=O)NC(CCCN=C(N)N)C(=O)NC(C)C(=O)NC(CO)C(=O)NC(CC(C)C)C(=O)NCC(=O)O (centres undefined) (H-LRRASLG-OH; configuration not given here)
T/C (dose: 2.25 mg/kg/injection, schedule: Q01DX009 (ip), vehicle: Klucel (hydroxypropylcellulose) (HPC)): 103 % of control
T/C (dose: 4.5 mg/kg/injection, schedule: Q01DX009 (ip), vehicle: Klucel (hydroxypropylcellulose) (HPC)): 100 % of control
T/C (dose: 9.0 mg/kg/injection, schedule: Q01DX009 (ip), vehicle: Klucel (hydroxypropylcellulose) (HPC)): 100 % of control
T/C (dose: 18.0 mg/kg/injection, schedule: Q01DX009 (ip), vehicle: Klucel (hydroxypropylcellulose) (HPC)): 106 % of control
T/C (dose: 36.0 mg/kg/injection, schedule: Q01DX009 (ip), vehicle: Klucel (hydroxypropylcellulose) (HPC)): 106 % of control

CS(=O)(=O)OCC(O)C(O)CI (centres undefined)
T/C (dose: 25.0 mg/kg/injection, schedule: Q01DX005 (ip), vehicle: saline): 109 % of control
T/C (dose: 50.0 mg/kg/injection, schedule: Q01DX005 (ip), vehicle: saline): 104 % of control
T/C (dose: 100.0 mg/kg/injection, schedule: Q01DX005 (ip), vehicle: saline): 111 % of control

C=C(C)CSc1ncnc2nc[nH]c12
T/C (dose: 100.0 mg/kg/injection, schedule: Q04DX003 (ip), vehicle: saline with Tween-80): 104 % of control
T/C (dose: 200.0 mg/kg/injection, schedule: Q04DX003 (ip), vehicle: saline with Tween-80): 100 % of control
T/C (dose: 400.0 mg/kg/injection, schedule: Q04DX003 (ip), vehicle: saline with Tween-80): 100 % of control

COC(=O)C(C)NC(=O)C(C)NC(=O)c1ccc(OC)cc1 (centres undefined)
T/C [1]: 105 % of control
T/C [2]: 99 % of control
T/C [3]: 91 % of control

Cc1c2c(=O)oc3ccc(Cl)cc3c2nn1-c1ccccc1
T/C [9]: 96 % of control
T/C [10]: 93 % of control

Cc1nn(-c2ccccc2)c(=O)n2nnnc12
T/C [7]: 96 % of control
T/C [8]: 94 % of control
T/C (dose: 400.0 mg/kg/injection, schedule: Q01DX001 (ip), vehicle: saline with Tween-80): 96 % of control

Cc1csc2nc(-c3ccco3)nn12
T/C [9]: 107 % of control
T/C [10]: 107 % of control

N#CCc1nn(-c2ccccc2)c2ncnc(N)c12
T/C (dose: 6.25 mg/kg/injection, schedule: Q01DX009 (ip), vehicle: Klucel (hydroxypropylcellulose) (HPC)): 103 % of control
T/C (dose: 12.5 mg/kg/injection, schedule: Q01DX009 (ip), vehicle: Klucel (hydroxypropylcellulose) (HPC)): 100 % of control and 114 % of control and 94 % of control
T/C (dose: 25.0 mg/kg/injection, schedule: Q01DX009 (ip), vehicle: Klucel (hydroxypropylcellulose) (HPC)): 108 % of control and 97 % of control (2×)
T/C (dose: 50.0 mg/kg/injection, schedule: Q01DX009 (ip), vehicle: Klucel (hydroxypropylcellulose) (HPC)): 100 % of control and 120 % of control and 98 % of control
T/C (dose: 100.0 mg/kg/injection, schedule: Q01DX009 (ip), vehicle: Klucel (hydroxypropylcellulose) (HPC)): 106 % of control
